Measurements: patent US10328063B2, “Method of wound healing” (CONNEXIOS LIFE SCIENCES PVT. LTD, priority 2015, dated 2019)

Tests used:
[1] = test system: Human Dermal Fibroblast cells (HDF); test: In vitro scratch assay; type: cell-based; details: 400 nM cortisone with 1 μM test molecule, 24 h
Experimental: Human Dermal Fibroblast cells (HDF) cells were seeded in 24 well plates (25000 cells/mL) in 1 mL of growth media (Media-106, Gibco) and allowed to grow for 24 h at 37° C. and 5% CO2. A small linear scratch was created in the confluent monolayer by gently scraping with sterile p200 pipette tips (care was taken during scratching process to ensure universal size and distant was made for all samples). Cells were extensively rinsed with PBS to remove cellular debris before adding the media with different treatment solutions (400 nM cortisone with or without 1 μM of test molecule according to Formula (I)). After 24 h, images of migrated cells were taken using a digital camera connected to inverted microscope to observe the closure of wound area. Scratch assays were performed in quadruplicate.

[2] = test system: excision wound in diet induced obese C57 mice; test: Excision wound model in HFD fed C57 mice (wound contraction, histopathology); type: in vivo; details: for Wound contraction profile in C57 mice: HFD, 0.5% cream topical twice a day, Mean ± SEM
From the text: (§1) After an acclimatization period, C57 animals on the HFD were weighed and randomly allocated into different groups such as HFD cream base control and HFD+0.5% CNX-010-640 cream. C57 animals on a lean chow diet (Cream base) were also used as a control. Swiss albino mice on a lean chow diet (excision experiments only) were randomized into cream base control and 0.5% CNX-010-640 cream.
(§2) Mice were anaesthetized using ketamine and xylazine, hair was trimmed off and a circular excision of 20 mm^2 size was made on the dorsal neck region. CNX-010-640 cream was applied topically, twice a day. The degree of protection for wound remodeling was assessed by measuring wound contraction and period of epithelialisation. Wound contraction was measured on alternate days by tracing the raw wound area on graph paper carried by butter paper. Scar residue and time for completion of epithelialisation was measured. Results are shown in FIGS. 2 and 3, and Tables 1 to 3. On the termination day animals were euthanized and tissue samples containing wound was collected to study histopathological changes (as shown in FIGS. 6 to 11) and gene expression profiles were determined (FIGS. 12 to 17).
[7] All the values are expressed as Mean±SEM, one way analysis of variance was performed followed by Dunnets' test for establishing the significance value of the treatment groups when compared with the HFD control.

[3] = test system: excision wound in Swiss albino mice; test: Excision wound model in Swiss albino mice (wound contraction); type: in vivo; details: for Wound contraction profile in SAM: 0.5% cream topical twice a day, Mean ± SEM
From the text: as §1, §2

[4] = test system: excision wound in db/db mice; test: Excision wound model in db/db mice (wound contraction); type: in vivo; details: for Wound contraction profile in db/db mice: 0.5% cream topical twice a day, Mean ± SEM
Experimental: (§3) db/db Mice (from JAX lab) on chow diet were weighed and randomly allocated into different groups such as db/db cream base control and db/db+0.5% CNX-010-640 cream.
as §2

[5] = test system: incision wound in diet induced obese C57 mice; test: Incision wound model in HFD fed C57 mice (tensile strength, collagen content); type: in vivo; details: diabetic C57 mice
From the text: as §1
(§4) [6] Mice were anaesthetized using ketamine and xylazine, hair was trimmed off and a longitudinal incision of 4 to 5 cm length was made on the back and stitched with thread. CNX-010-640 cream was applied topically, twice a day. The degree of protection for wound remodeling was assessed by measuring tensile strength and collagen content of skin at the healed wound site. Wound tensile strength was measured after 14 days of treatment.

[6] = test system: incision wound in db/db mice; test: Incision wound model in db/db mice (tensile strength); type: in vivo; details: diabetic db/db mice
Experimental: as §3, §4

[7] = test system: markers of inflammation at the wound area; test: Ex vivo gene expression profile from excision wound model; type: in vivo; details: HFD C57BL/6 mice, after one week of compound treatment, skin near wound
From the text: [13] […] The db/db control group wounds were not healed within this time. Furthermore, the size of wound of these control groups at the end of the experiment period (day 12) was achieved by the CNX-010-640 treated mice after only 8 days of treatment. […] [16] […] [17] Additionally, the degree of polymorphonuclear cell infiltration (indicative of inflammatory phase) was greater in the G2 group compared to the G3 group (compare FIGS. 6 and 7). From these microscopic observations it can be concluded that the treatment with 0.5% CNX-010-640 hastened the healing process, as it facilitated an early advancement into the proliferative phase in animals treated with CNX-010-640 (G3 group) of this study. Thus CNX-010-640 cream, when applied topically b.i.d, in excision and incision wound healing model on HFD background animals and normal SAM mice, enhanced the healing process in comparison with normal healing and VersaPro control. […] Gene expression was measured using SYBR Green PCR Master Mix (Eurogenetic, Belgium) and relative levels of expression were quantified (see FIGS. 12 to 17). From this, it is apparent that compound treatment has reduced the markers of inflammation at the wound area, as measured by gene expression. […]

[8] = HFD C57 mice, 0.5% cream, excision wound
[9] = diabetes-induced C57 mice, excision

CC(CC(=O)N1C2CC3CC1CC(O)(C3)C2)c1c[nH]c2ccc(Cl)c(Cl)c12 (stereo not drawn) [CNX-010-640, 3-(4,5-Dichloro-1H-indol-3-yl)-1-(5-hydroxy-2-azatricyclo[3.3.1.1^3,7]dec-2-yl)butan-1-one]
closure of wound area (wound healing properties, image analysis) [1]: good wound healing properties
Wound contraction profile in C57 mice ([2]; Day 0): 25.10 ± 1.40 mm^2
Wound contraction profile in C57 mice ([2]; Day 2): 15.80 ± 1.77 mm^2
Wound contraction profile in C57 mice ([2]; Day 4): 17.90 ± 1.92 mm^2
Wound contraction profile in C57 mice ([2]; Day 6): 9.40 ± 1.42 mm^2
Wound contraction profile in C57 mice ([2]; Day 8): 5.60 ± 1.47 mm^2
Wound contraction profile in C57 mice ([2]; Day 10): 4.00 ± 1.41 mm^2
Wound contraction profile in C57 mice ([2]; Day 12): 0.25 ± 0.25 mm^2
degree of collagen deposition (histopathology) in comparison with HFD+VersaPro control [2, 8]: higher degree
degree of fibroblast proliferation (histopathology) in comparison with HFD+VersaPro control [2, 8]: higher degree
days of treatment to reach the wound size of the control group at day 12 [2, 9]: 6 days
time to complete healing of the wound [2, 9]: 12 days
degree of polymorphonuclear cell infiltration (histopathology) ([2]; diabetes-induced mouse, VersaPro cream with 0.5% compound, excision wound): mild
Wound contraction profile in SAM ([3]; Day 0): 22.77 ± 1.38 mm^2
Wound contraction profile in SAM ([3]; Day 2): 15.00 ± 2.18 mm^2
Wound contraction profile in SAM ([3]; Day 4): 14.33 ± 2.62 mm^2
Wound contraction profile in SAM ([3]; Day 6): 10.44 ± 2.80 mm^2
Wound contraction profile in SAM ([3]; Day 8): 3.20 ± 1.46 mm^2
Wound contraction profile in SAM ([3]; Day 10): 1.00 ± 0.54 mm^2
Wound contraction profile in SAM ([3]; Day 12): 0.600 ± 0.600 mm^2
days of treatment to reach the wound size of the control group at day 12 ([3]; Swiss albino mice, excision): 6 days
time to complete healing of the wound ([3]; non-diabetic Swiss albino mice, excision): 12 days
Wound contraction profile in db/db mice ([4]; Day 0): 17.10 ± 0.69 mm^2
Wound contraction profile in db/db mice ([4]; Day 2): 23.80 ± 0.87 mm^2
Wound contraction profile in db/db mice ([4]; Day 4): 14.40 ± 0.91 mm^2
Wound contraction profile in db/db mice ([4]; Day 6): 11.40 ± 0.48 mm^2
Wound contraction profile in db/db mice ([4]; Day 8): 8.20 ± 0.42 mm^2
Wound contraction profile in db/db mice ([4]; Day 10): 5.00 ± 0.47 mm^2
Wound contraction profile in db/db mice ([4]; Day 12): 2.20 ± 0.42 mm^2
Wound contraction profile in db/db mice ([4]; Day 16): 0.30 ± 0.21 mm^2
days of treatment to reach the wound size of the control group at day 12 ([4]; db/db mice, excision): 8 days
time to complete healing of the wound ([4]; diabetic db/db mice, excision): 16 days
improvement of tensile strength of skin at the incision site compared with control formulation ([5]; after 14 days of treatment): up to 38%
collagen content, as estimated by measurement of hydroxyproline, compared with controls ([5]; incision): greater
improvement of tensile strength of skin at the incision site compared with control formulation [6]: up to 18%
markers of inflammation at the wound area, as measured by gene expression [7]: reduced
